pEC50, pIC50: −log10 of the molar value. Where two headings read alike, the source gives them in different places. Values belong to the compound of their own block, whether it stands above or below them.
Assays:
[1] = tested on: HIV-1IIIB; assay: HIV MAGI assay, HIV-1IIIB; assay type: cell-based; conditions: Human immunodeficiency virus 1, MAGI
Protocol: (§1) HIV-1 and MAGI Tropism assays can be used to establish activity/cytotoxicity and synergy studies and ADME profiles of compounds are evaluated using in vitro assays such as CYP2D6/3A4 assays and metabolic stability in human and mouse liver microsomes (See Tables 2 and 3).

[2] = tested on: HIV-1BaL; assay: HIV MAGI assay, HIV-1BaL; assay type: cell-based; conditions: Human immunodeficiency virus 1, MAGI
Protocol: as §1

[3] = tested on: MAGI; assay: Cytotoxicity in MAGI HIV-1IIIB assay; assay type: cell-based; conditions: Table 3
Protocol: as §1

[4] = tested on: MAGI; assay: Cytotoxicity in MAGI HIV-1BaL assay; assay type: cell-based; conditions: Table 3; head prints TC90
Protocol: as §1

[5] = target: CYP2D6 (Homo sapiens (Human), UniProt P10635); assay: Recombinant CYP inhibition assay (fluorometric), CYP2D6; assay type: in vitro ADME
Text: (§2) Recombinant CYP Inhibition Assay: In a drug discovery program, a rapid screening for cyctochrome P450 (CYP450) inhibitors is a part of the existing standard for avoiding the development of drugs likely to give clinical pharmacokinetic drug-drug interactions and associated toxicities. A microtiter plate-based, direct fluorometric assay for the activities of the principal human drug-metabolizing enzymes, CYP2D6 and CYP3A4 can be used and these assays are rapid and compatible with existing high-throughput assay instrumentation.
(§3) Fluorometric Enzyme Inhibition Assays: Test compounds were dissolved in 100% organic solvent (CH3CN or DMSO) to make 30 mM stock solutions. […] A 100 mM potassium phosphate buffer was prepared and adjusted to pH 7.4. The 30 mM stock solution of test and control compounds (1 mM) were further diluted in phosphate buffer (100 mM, pH 7.4) to ensure the final organic solvent content was <0.2% in the reaction. In a separate falcon tube, a 2× enzyme/substrate (E/S) solution was prepared in phosphate buffer. The final concentration of CYP2D6 (Corning) and AMMC was 10 nM and 4 μM, and CYP3A4 (Corning) and BFC was 20 nM and 40 μM, respectively. In a separate falcon tube, a 2× NADPH regenerating system (NRS) was prepared in phosphate buffer. The final concentration for each component in the assay was as follows: • CYP2D6 assay=0.008 mM NADPH, 3.3 mM glucose 6-phosphate, 0.4 U of glucose-6-phosphate dehydrogenase/mL • CYP3A4 assay=2.45 mM NADPH, 24.7 mM glucose 6-phosphate, 1.25 U of glucose-6-phosphate dehydrogenase/mL
(§4) Both enzymatic assays were conducted in a 96-well microtiter plate (Black, Corning Costar) with a final volume of 100 μL. Preparation of the plate began with the addition of 74 μL of the E/S in the first well, and 50 μL to all subsequent wells (from 2-11). The test compounds (1 μL) were dissolved in the first well to give the first row a final volume of 75 μL. A 1:3 serial dilution of the test compound was conducted by removing 25 μL from the first well and diluting it with the second and so forth until the tenth row. Final concentrations yielded a range from 300 μM-0.01 μM. Well 11 contained no enzyme, and well 12 contained no inhibitor. Both were used as controls for background fluorescence. The plate was incubated for 10 min at 37° C. for CYP2D6, and 30 mins for CYP3A4. After incubation, the reaction was initiated by the addition of 50 μL of the 2× NRS to each well.
(§5) Immediately (within 1 min) the fluorescence was measured using a microplate reader (KC4, BioTek). CYP2D6 was monitored at Ex/Em=410/460 nm, and CYP3A4 monitored at Ex/Em=410/538 nm in kinetic mode that scanned every 5 min for 60 mins. Data was exported and corrected for background noise by subtracting the blank from the mean value of all other columns. […]

[6] = target: CYP3A4 (Homo sapiens (Human), UniProt P08684); assay: Recombinant CYP inhibition assay (fluorometric), CYP3A4; assay type: in vitro ADME
Text: as §2, §3, §4, §5

[7] = Protocol: Human Liver Microsomes: Pooled mixed gender human liver microsomes at a concentration of 20 mg/mL were purchased from XenoTech (Kansas City, Kans.). The vials of microsomes were stored at −80° C. and thawed on ice before each experiment. The microsomes were diluted to 1 mg/mL with 100 mM potassium phosphate buffer (pH 7.4).
Experimental Conditions: Test compounds were weighed and dissolved in 100% acetonitrile to make 2 mM stock solutions. […] The 2 mM stock solution of test and control compounds were further diluted in sodium phosphate buffer (100 mM, pH 7.4) to 50 μM to ensure the acetonitrile content was <0.2%.
The liver microsome assay was prepared in a 1.5 mL Eppendorf tube (Fisher Scientific) with a final volume of 1100 μL. Each reaction contained sodium phosphate buffer, liver microsomes (1 mg/mL), and test compound resulting in a final concentration of 3 μM. Following a 5 min pre-incubation of drug and microsomes in a 37° C. shaking incubator, the reaction was initiated with NADPH (110 μL). Aliquots (100 μL) were removed in duplicate at 0, 5, 10, 15, and […] and quenched in cold acetonitrile (200 μL). The aliquots were centrifuged at 12,000 g for 5 min and the supernatant removed and placed in an LCMS vial. […] A no NADPH negative control with test and control compound was conducted in singlet (150 μL) at the longest time point. Controls were processed and analyzed like test compounds.
An Agilent Technologies LCMS system consisting of an Agilent 6120 quadrupole mass spectrometer equipped with an Agilent 1200 binary pump, degasser, and auto sampler (Santa Clara, Calif.). The analytical column used for analysis was an XDB-Eclipse Plus C18 column (4.6 mm×150 mm column; Agilent Technologies). The mobile phase for the HPLC was 50 mM ammonium formate buffer, pH 3.5 (A) and acetonitrile (B). The samples were analyzed using the following 8-minute method: A linear gradient from 10% B to 95% B over for 5 minutes, with a 3 min hold at 95%. An equilibration at 10% B for 5 min was conducted after each run. Sample injection volume was 10 μL and the flow rate was 1.0 mL/min. Single ion monitoring of the mass in positive mode was conducted the molecular weight for each compound. Each time point was assessed on the LCMS and the area, based on the extracted ion, was manually integrated.
Calculations: The depletion of the compound was monitored as a function of time, and the area under the curve was manually integrated. The relative percent remaining was calculated using: Relative % remaining=AreaTime/AreaTime=0*100. The relative percentages for the duplicate runs were averaged and the standard deviations were calculated. Metabolism data averaged duplicates.

[8] = Mouse liver microsomes assay; assay type: in vitro ADME; conditions: for Relative % remaining, mouse liver microsomes: 3 μM compound, 1 mg/mL microsomes
Protocol: Controls were processed and analyzed like test compounds. […] The relative percent remaining was calculated using: Relative % remaining=[…]=0*100. […] Metabolism data averaged duplicates.

[9] = tested on: HIV; conditions: in vitro resistance studies; cited from earlier work

Chain of CYP2D6 (P10635 whole entry): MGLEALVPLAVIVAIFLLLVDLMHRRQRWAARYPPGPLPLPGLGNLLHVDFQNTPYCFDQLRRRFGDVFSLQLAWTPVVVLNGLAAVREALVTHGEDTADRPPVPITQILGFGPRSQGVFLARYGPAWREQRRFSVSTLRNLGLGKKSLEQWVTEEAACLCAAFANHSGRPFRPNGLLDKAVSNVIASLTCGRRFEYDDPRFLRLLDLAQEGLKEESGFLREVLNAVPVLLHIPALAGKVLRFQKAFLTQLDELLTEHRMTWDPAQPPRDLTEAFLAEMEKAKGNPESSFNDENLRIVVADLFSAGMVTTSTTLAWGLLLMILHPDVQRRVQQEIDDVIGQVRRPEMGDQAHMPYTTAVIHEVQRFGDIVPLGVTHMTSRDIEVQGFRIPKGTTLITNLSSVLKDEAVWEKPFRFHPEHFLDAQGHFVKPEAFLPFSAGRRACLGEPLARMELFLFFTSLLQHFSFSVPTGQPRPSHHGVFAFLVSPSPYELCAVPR
Chain of CYP3A4 (P08684 whole entry): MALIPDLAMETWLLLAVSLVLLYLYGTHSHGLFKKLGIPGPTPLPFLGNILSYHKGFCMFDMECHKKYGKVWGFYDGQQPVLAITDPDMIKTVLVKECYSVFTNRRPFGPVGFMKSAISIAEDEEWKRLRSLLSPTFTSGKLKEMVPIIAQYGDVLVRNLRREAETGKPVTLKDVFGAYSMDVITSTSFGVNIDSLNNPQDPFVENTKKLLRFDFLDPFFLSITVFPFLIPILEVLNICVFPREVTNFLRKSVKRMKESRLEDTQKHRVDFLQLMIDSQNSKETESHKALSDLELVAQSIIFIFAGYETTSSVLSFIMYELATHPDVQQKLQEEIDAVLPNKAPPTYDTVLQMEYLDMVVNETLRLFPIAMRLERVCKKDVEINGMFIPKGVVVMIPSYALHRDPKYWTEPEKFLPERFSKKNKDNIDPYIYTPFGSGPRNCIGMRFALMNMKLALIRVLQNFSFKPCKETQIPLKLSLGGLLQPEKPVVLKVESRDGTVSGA

pIC50 ([1]; Table 3): 7.15
IC90 ([1]; Table 3): 680 nM
pEC50 ([1]; Table 1, read-out: HIV MAGI EC50 HIVIIIB): 7.15
pIC50 ([2]; Table 3): 5.58
IC90 ([2]; Table 3): 29100 nM
pEC50 ([2]; Table 1, read-out: HIV MAGI EC50 HIVBa-L): 5.58
pIC50 ([5]; Table 1): < 4.70
Inhibition of cytochrome P450 isoform 2D6 (in words) ([5]; preliminary ADME screening): does not inhibit
pIC50 ([6]; Table 1): < 4.70
Inhibition of cytochrome P450 isoform 3A4 (in words) ([6]; preliminary ADME screening): does not inhibit
Stability in human liver microsomes (in words) [7]: good stability
Relative % remaining, human liver microsomes ([7]; both, 10 min, 3 μM, pH 7.4): 65 ± 8.6%
Relative % remaining, human liver microsomes ([7]; both, 0.5 h, 3 μM, pH 7.4): 78 ± 2.2%
HLM ([7]; both, human, microsomes, 10 min, 3 μM, pH 7.4): 65% @ 10 min
Stability in mouse liver microsomes (in words) [8]: good stability
Relative % remaining, mouse liver microsomes ([8]; 10 min): 95 ± 7.2%
Relative % remaining, mouse liver microsomes ([8]; 30 min): 96 ± 6.5%
MLM ([8]; @ 10 min, Table 1): 95% @ 10 min
SMILES: NCCCCN(C[C@H]1CN(CC[C@H](NC(=O)C2CCC(F)(F)CC2)c2ccccc2)CCN1)[C@H]1CCCc2cccnc21 [Compound 2]
MAGI HIV-1IIIB TC50 [3]: >10000 nM
MAGI HIV-1BaL TC90 [4]: 33100 nM

SMILES: c1cc(CN2CCCNCCNCCCNCC2)ccc1CN1CCCNCCNCCCNCC1 [AMD3100]
Passages required to develop resistance [9]: 63 passages

SMILES: Cc1ccnc2c1NC(=O)c1cccnc1N2C1CC1 [nevirapine]
Passages required to develop resistance [9]: 2 passages

SMILES: Cc1cn([C@H]2C[C@H](N=[N+]=[N-])[C@@H](CO)O2)c(=O)[nH]c1=O [AZT]
Passages required to develop resistance [9]: 11 passages

SMILES: Cc1ccc(-c2ccc3c(c2)C=C(C(=O)Nc2ccc(C[N+](C)(C)C4CCOCC4)cc2)CCC3)cc1.[Cl-] [TAK-779]
Passages required to develop resistance [9]: 41 passages

Reference: patent US11649235B2, “Pan-tropic entry inhibitors” (Emory University, priority 2018, dated 2023)
